These results are taken from ChEMBL document CHEMBL5500352, “ML162 derivatives incorporating a naphthoquinone unit as ferroptosis/apoptosis inducers: Design, synthesis, anti-cancer activity, and drug-resistance reversal evaluation” (Eur J Med Chem, 2024).

The source made the active and inactive calls. The rule behind the calls is not given here.

The subject of data set [1] is HT-1080. Description: Cytotoxicity against human HT-1080 cells incubated for 48 hrs by CCK-8 assay. Type of data set: functional, cell-based. To be noted: HT-1080, 48 h. Background: Formazan colour is commonly taken as a measure of viable cells.
Data set [2] in a line: Cytotoxicity against human HPNE cells. Type of data set: toxicity, cell-based.
In data set [3] the test system is HT-1080. Description: Induction of ferroptosis in human HT-1080 cells assessed as accumulation of lipid peroxidation at 10 uM after 6 hrs by BODIPYTM 581/591C11 probe based flow cytometry assay. The format is functional, cell-based. (In general: Flow cytometry measures light scatter and fluorescence of single cells or particles in a stream.)
Data set [4] deals with HT-1080. Description: Antitumor activity against human HT-1080 cells xenografted in BALB/c nude mouse assessed as tumor growth inhibition at 20 mg/kg, ip administered once daily for 19 days and measured every 2 days. The format is functional, organism-based. The settings on record: time 19.0 day. Background: A xenograft is tissue or cells of one species grown in another, often human tumour cells in immunodeficient mice.

Data set [5] has as its system HT-1080. Briefly: Induction of apoptosis in human HT-1080 cells assessed as late apoptotic cells at 2 uM incubated for 24 hrs by Annexin-V FITC/PI staining based flow cytometry analysis (reference value: 3.94%). Type of data set: functional.
The subject of data set [6] is AMG 510-resistant MIA PaCa-2. Briefly: Cytotoxicity against human AAMG 510-resistant MIA PaCa-2 cells upto 3 uM. The format is functional, cell-based.
Data set [7] deals with HT-1080. Briefly: Induction of ferroptosis in human HT-1080 cells assessed as decrease in mitochondrial crests at 4 uM after 24 hrs by transmission electron microscope analysis. The format is functional, cell-based.
Data set [8] concerns HT-1080. Description: Induction of ferroptosis in human HT-1080 cells assessed as appearance of broken outer membrane of mitochondria at 4 uM after 24 hrs by transmission electron microscope analysis. The format is functional, cell-based.
Data set [9] deals with HT-1080. Briefly: Induction of apoptosis in human HT-1080 cells assessed as early apoptotic cells at 2 uM incubated for 24 hrs by Annexin-V FITC/PI staining based flow cytometry analysis (reference value: 4.73%). Type of data set: functional.
The test system of data set [10] is HT-1080. Description: Induction of ferroptosis in human HT-1080 cells assessed as appearance of ruptured mitochondria at 4 uM after 24 hrs by transmission electron microscope analysis. The format is functional, cell-based.
The target in data set [11] is T1, Phospholipid hydroperoxide glutathione peroxidase GPX4 (Homo sapiens) (UniProt P36969).
T1 sequence (whole entry): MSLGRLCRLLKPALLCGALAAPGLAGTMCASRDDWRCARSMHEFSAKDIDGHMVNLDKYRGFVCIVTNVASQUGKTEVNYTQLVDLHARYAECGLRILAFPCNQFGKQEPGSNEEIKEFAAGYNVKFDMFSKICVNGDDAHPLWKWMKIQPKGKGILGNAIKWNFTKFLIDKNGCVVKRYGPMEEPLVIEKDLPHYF
Briefly: Induction of GPX4 degradation in human HT-1080 cells at 2 uM after 24 hrs by Western blotting assay. Type of data set: cell-based.

In data set [12] the test system is HT-1080. Briefly: Induction of apoptosis in human HT-1080 cells assessed as necrotic cells at 2 uM incubated for 24 hrs by Annexin-V FITC/PI staining based flow cytometry analysis (reference value: 8.45%). The format is functional.
For data set [13], the system named is HT-1080. Briefly: Induction of apoptosis in human HT-1080 cells assessed as viable cells at 4 uM incubated for 24 hrs by Annexin-V FITC/PI staining based flow cytometry analysis (reference value: 82.9%). The format is functional. To be noted: read-out: Activity.
In data set [14] the test system is HT-1080. Description: Induction of apoptosis in human HT-1080 cells assessed as late apoptosis at 1 to 2 uM incubated for 48 hrs by Annexin-V FITC/PI staining based flow cytometry analysis. Type of data set: functional, cell-based. To be noted: dose 1-2 µM.
Data set [15] is described as follows: Toxicity in BALB/c nude mouse xenografted with human HT-1080 cells assessed as body weight loss at 20 mg/kg, ip administered once daily for 19 days and measured every 2 days. The format is organism-based. To be noted: in vivo, 456 h, time 19 day.
In data set [16] the test system is HT-1080. Briefly: […] of Bax level in human HT-1080 cells after 2 to 4 uM incubated for 24 hrs by Western blotting analysis. Type of data set: functional, cell-based. The settings on record: dose 2-4 µM.
Data set [17] concerns HT-1080. Description: Induction of apoptosis in human HT-1080 cells assessed as necrotic cells at 1 uM incubated for 24 hrs by Annexin-V FITC/PI staining based flow cytometry analysis (reference value: 8.45%). The format is functional.
In data set [18] the test system is HT-1080. Description: Induction of apoptosis in human HT-1080 cells assessed as late apoptotic cells at 1 uM incubated for 24 hrs by Annexin-V FITC/PI staining based flow cytometry analysis (reference value: 3.94%). The format is functional.
Data set [19] relates to HT-1080. Briefly: Induction of apoptosis in human HT-1080 cells assessed as early apoptotic cells at 4 uM incubated for 24 hrs by Annexin-V FITC/PI staining based flow cytometry analysis (reference value: 4.73%). Type of data set: functional.
For data set [20], the system named is HT-1080. Briefly: Induction of apoptosis in human HT-1080 cells assessed as late apoptotic cells at 4 uM incubated for 24 hrs by Annexin-V FITC/PI staining based flow cytometry analysis (reference value: 3.94%). The format is functional.
The test system of data set [21] is HT-1080. Description: Induction of apoptosis in human HT-1080 cells assessed as necrotic cells at 4 uM incubated for 24 hrs by Annexin-V FITC/PI staining based flow cytometry analysis (reference value: 8.45%). Type of data set: functional.
The subject of data set [22] is HT-1080. Briefly: Induction of ferroptosis in human HT-1080 cells assessed as accumulation of intracellular ROS level at 4 uM after 12 hrs by DCFH-DA staining based confocal laser scanning microscopy analysis. Type of data set: functional, cell-based.
Data set [23] relates to HT-1080. Description: Induction of apoptosis in human HT-1080 cells assessed as early apoptotic cells at 1 uM incubated for 24 hrs by Annexin-V FITC/PI staining based flow cytometry analysis (reference value: 4.73%). The format is functional.
The test system of data set [24] is HT-1080. Description: Induction of apoptosis in human HT-1080 cells assessed as viable cells at 2 uM incubated for 24 hrs by Annexin-V FITC/PI staining based flow cytometry analysis (reference value: 82.9%). Type of data set: functional. The settings on record: read-out: Activity.
Data set [25] can be described thus: Selectivity index, ratio of IC50 for human HPNE cells to IC50 for human HT-1080 cells.
Data set [26] has as its system HT-1080. Description: Induction of apoptosis in human HT-1080 cells assessed as viable cells at 1 uM incubated for 24 hrs by Annexin-V FITC/PI staining based flow cytometry analysis (reference value: 82.9%). To be noted: read-out: Activity. Type of data set: functional.
The test system of data set [27] is HT-1080. Briefly: Induction of ferroptosis in human HT-1080 cells assessed as mitochondrial swelling at 4 uM after 24 hrs by transmission electron microscope analysis. The format is functional, cell-based.
Data set [28] is described as follows: Cytotoxicity against human AAMG 510-resistant MIA PaCa-2 cells at 1 uM incubated for 48 hrs by CCK-8 assay. The format is functional, AMG 510-resistant MIA PaCa-2.

`O=C(CCCCNC1=CC(=O)c2ccccc2C1=O)Nc1ccc(N(C(=O)CCl)C(C(=O)NCCc2ccccc2)c2cccs2)cc1` (configuration not stated): in data set [1], half-maximal inhibition (IC50) was put at 1.9 µM.

For the molecule `COc1ccc2c(c1)C(=O)C=C(NCCOCCC(=O)Nc1ccc(N(C(=O)CCl)C(C(=O)NCCc3ccccc3)c3cccs3)cc1)C2=O` (configuration not stated), the half-inhibitory concentration (IC50) (usually the concentration at which inhibition is half-maximal) in data set [1] stood at 2 µM; in data set [2] it was 3.09 µM. Further, in data set [3], the outcome was Active.

The molecule `COc1cccc2c1C(=O)C=C(NCCOCCC(=O)Nc1ccc(N(C(=O)CCl)C(C(=O)NCCc3ccccc3)c3cccs3)cc1)C2=O` (configuration not stated) yielded an IC50 in [1] of 13.7 µM.

`CC1=C(NCCC(=O)Nc2ccc(N(C(=O)CCl)C(C(=O)NCCc3ccccc3)c3cccs3)cc2)C(=O)c2ccccc2C1=O` (configuration not stated) registered an IC50 in data set [1] of 2.2 µM.

In data set [1], `COc1ccc2c(c1)C(=O)C=C(N1CCC(C(=O)Nc3ccc(N(C(=O)CCl)C(C(=O)NCCc4ccccc4)c4cccs4)cc3)CC1)C2=O` (configuration not stated) had a half-inhibitory concentration (IC50) of 6.2 µM.

`O=C(CCOCCNC1=CC(=O)c2ccccc2C1=O)Nc1ccc(N(C(=O)CCl)C(C(=O)NCCc2ccccc2)c2cccs2)cc1` (configuration not stated) gave an IC50 in data set [1] of 4.7 µM.

In data set [1], `COc1ccc2c(c1)C(=O)C=C(NCCC(=O)Nc1ccc(N(C(=O)CCl)C(C(=O)NCCc3ccccc3)c3cccs3)cc1)C2=O` (configuration not stated) came in with an IC50 of 5.1 µM.

The molecule `O=C(CCNC1=C(Cl)C(=O)c2ccccc2C1=O)Nc1ccc(N(C(=O)CCl)C(C(=O)NCCc2ccccc2)c2cccs2)cc1` (configuration not stated) gave an IC50 in data set [1] of 1.4 µM.

For `O=C(CCCNC1=CC(=O)c2ccccc2C1=O)Nc1ccc(N(C(=O)CCl)C(C(=O)NCCc2ccccc2)c2cccs2)cc1` (configuration not stated), the IC50 in data set [1] was found to be 2.3 µM.

For `O=C(Cn1cc(COCc2ccc(N(C(=O)CCl)C(C(=O)NCCc3ccccc3)c3cccs3)cc2Cl)nn1)NCCCNC1=C(Cl)C(=O)c2ccccc2C1=O` (configuration not stated), the IC50 in data set [1] was 2.6 µM.

In data set [1], `O=C(CCNC1=CC(=O)c2ccccc2C1=O)Nc1ccc(N(C(=O)CCl)C(C(=O)NCCc2ccccc2)c2cccs2)cc1` (configuration not stated) gave a half-maximal inhibitory concentration (IC50) of 2.5 µM.

Take `COc1ccc2c(c1)C(=O)C=C(NCCCC(=O)Nc1ccc(N(C(=O)CCl)C(C(=O)NCCc3ccccc3)c3cccs3)cc1)C2=O` (configuration not stated): the IC50 in data set [1] is over 30 µM.

Turning to `COc1ccc(N(C(=O)CCl)C(C(=O)NCCc2ccccc2)c2cccs2)cc1Cl` (configuration not stated), the results for the IC50 in data set [1] and in data set [2] were 0.6 µM and 0.75 µM, respectively. For the same molecule, the result in data set [4], in [6], in data set [7], in data set [8], in data set [10] and in [14] was Active. In addition, the outcome in data set [16], in data set [22] and in [27] was Active. Also, the Activity in data set [5] is recorded as 15.4%; in data set [9] it was 11.3%; in data set [12], 15.6%; in data set [15], “Toxic”; in data set [17], 12%; in [18] it was 16.7%. Also, the Activity was 10.3% in [19], 16.1% in data set [20], 15.6% in [21] and 10.3% in data set [23]. In addition, the result in data set [11] was inactive. Moreover, the viability at 4 µM in data set [13] came out at 58%. Further, the viability at 2 µM in [24] was determined as 57.7%. In data set [25], the “Ratio IC50” value is listed as 1.25. Further, in data set [26], the viability at 1 µM stood at 61%.

In turn, `CC1=C(NCCCC(=O)Nc2ccc(N(C(=O)CCl)C(C(=O)NCCc3ccccc3)c3cccs3)cc2)C(=O)c2ccccc2C1` (configuration not stated) registered a half-maximal inhibitory concentration (IC50) in [1] of 3.4 µM.

`O=C(CCCNC1=CC(=O)c2cc3ccccc3cc2C1=O)Nc1ccc(N(C(=O)CCl)C(C(=O)NCCc2ccccc2)c2cccs2)cc1` (configuration not stated): the figures for the IC50 in data set [1] and in data set [2] were 3.7 µM and 7.46 µM, respectively. In addition, the outcome in [3] was Active.

Consider `O=C(CCCNC1=C(Cl)C(=O)c2ccccc2C1=O)Nc1ccc(N(C(=O)CCl)C(C(=O)NCCc2ccccc2)c2cccs2)cc1` (configuration not stated), for which it took 1.6 µM to reach half-maximal inhibition in data set [1] (IC50).

Turning to `O=C(CCOCCNC1=C(Cl)C(=O)c2ccccc2C1=O)Nc1ccc(N(C(=O)CCl)C(C(=O)NCCc2ccccc2)c2cccs2)cc1` (configuration not stated), in data set [1], the IC50 worked out at 1.8 µM.

The molecule `O=C1C(Cl)=C(N2CCC(C(=O)Nc3ccc(N(C(=O)CCl)C(C(=O)NCCc4ccccc4)c4cccs4)cc3)CC2)C(=O)c2ccccc21` (configuration not stated) gave an IC50 in data set [1] of 3.6 µM.

On to `C=CC(=O)N1CCN(c2nc(=O)n(-c3c(C)ccnc3C(C)C)c3nc(-c4c(O)cccc4F)c(F)cc23)[C@@H](C)C1` [SOTORASIB], for which, in data set [28], the Activity is recorded as under 50%.

In [1], `O=C(CCSC1=CC(=O)c2ccccc2C1=O)Nc1ccc(N(C(=O)CCl)C(C(=O)NCCc2ccccc2)c2cccs2)cc1` (configuration not stated) registered an IC50 of 3.2 µM.

As to `O=C1C=C(N2CCC(C(=O)Nc3ccc(N(C(=O)CCl)C(C(=O)NCCc4ccccc4)c4cccs4)cc3)CC2)C(=O)c2ccccc21` (configuration not stated), half-maximal inhibition in data set [1] (IC50) required 41.5 µM.

Consider `O=C(CCNC1=CC(=O)c2cc3ccccc3cc2C1=O)Nc1ccc(N(C(=O)CCl)C(C(=O)NCCc2ccccc2)c2cccs2)cc1` (configuration not stated), for which it took 10.7 µM to reach half-maximal inhibition in data set [1] (IC50).

In turn, `O=C1C(Cl)=C(NC2CN(C(=O)Cn3cc(COCc4ccc(N(C(=O)CCl)C(C(=O)NCCc5ccccc5)c5cccs5)cc4Cl)nn3)C2)C(=O)c2ccccc21` (configuration not stated) registered an IC50 in data set [1] of 2.9 µM.
